“Also recorded” adds a separate entry of the source. Read-outs that look alike come from different tables or passages of the source.
Tests used:
[1] = tested on: Rhizoctonia solani; test: Pathogen suppressive activity plate assay (zone of inhibition); type: cell-based; conditions: for mean inhibitory zone size: Table 4
[2] = tested on: Sclerotinia sclerotiorum; test: as above; type: cell-based; conditions: for mean inhibitory zone size: Table 4
[3] = tested on: Fusarium oxysporum; test: as above; type: cell-based; conditions: for zone of inhibition: Table 1; for mean inhibitory zone size: Table 4
[4] = tested on: Fusarium graminearum; type: cell-based; conditions: for zone of inhibition: Table 1; for mean inhibitory zone size: Table 4
[5] = tested on: Phytophthora medicaginis; test: Pathogen suppressive activity plate assay (zone of inhibition); type: cell-based; conditions: for zone of inhibition: Table 1; for mean inhibitory zone size: Table 4
[6] = tested on: Phytophthora sojae; test: as above; type: cell-based
[7] = tested on: Pythium ultimum var. sporangiferum; test: as above; type: cell-based
[8] = tested on: F. culmorum; test: as above; type: cell-based; conditions: Table 1; pathogen isolate P61
[9] = tested on: Fusarium virguliforme; test: as above; type: cell-based; conditions: Table 4
[10] = tested on: clinical antimicrobials (antibiotic discs); test: Antibiotic disc resistance/susceptibility assay of microbial isolates; type: cell-based
[11] = tested on: Wheat, alfalfa, corn, and soybean plants; test: Plant growth promotion, greenhouse (FIG. 27); type: in vivo; conditions: plant biomass
Experimental: (§1) Wheat, alfalfa, corn, and soybean plants were evaluated for the growth response to microbial inoculants in growth chamber and greenhouse conditions. For each crop, containers (6.5 cm diameter x 25 cm long) were filled with steamed (sterile) greenhouse soil mix (500 ml) and planted with two (corn, soy, wheat) or three (alfalfa) seeds. Crop varieties were: SOY: AG 0832; CORN: Viking, WHEAT: Prosper, ALFALFA: Saranac. Seeds were inoculated with microbial isolates from the enriched microbial library immediately after planting (2 ml of water agar containing the inoculant per seed, 1×10^11 cells inoculant/ml). Control plants were allowed to grow without the microbial inoculants Plants were grown in the greenhouse and harvested at 3 weeks (corn), 4 weeks (wheat), 4.5 weeks (soybean) and 5 weeks (alfalfa). At harvest, the roots were carefully washed, and above- and belowground fresh weights were recorded (g). Plants were subsequently placed in paper bags and maintained in the 95° F. drying oven for 3 days, after which dry weights were also recorded. Plant weights were compared between inoculated and non-inoculated treatments.
(§2) For each crop (wheat, alfalfa, soybean, corn), a container (6.5 cm dia×25 cm long; approximately 500 cc of soil) was filled with steamed (sterile) greenhouse soil mix and planted with two of each seed (corn, soy, wheat) or three seeds (alfalfa) at a 0.5 inch depth. Crop varieties were: SOY: AG 0832; CORN: Viking, WHEAT: Prosper, ALFALFA: Saranac. Wheat, soybean and corn seeds (but not alfalfa) were surface sterilized before planting. Seeds were not treated with any fungicides or other chemicals. All crops were thinned to one seed per container following emergence. Ten replicate containers were planted for each inoculant and for the non-inoculated control.
(§3) Streptomyces cultures GS1 and PS1 were grown for 7-10 days on plates containing oatmeal agar (OA), and collected in 20% glycerol stocks. Stocks were serially diluted and plated on water agar (WA) for quantification. Stocks were then diluted to approximately 1×10^11 colony-forming units per ml.
(§4) For each inoculant, 2 ml of stock was distributed over the seeds at planting. Seeds and containers were watered when needed. Plants were incubated in the greenhouse and harvested at 3 weeks (corn), 4 weeks (wheat), 4.5 weeks (soybean) and 5 weeks (alfalfa). No additional nitrogen was added. At harvest for each crop, the roots were carefully washed, and above- and belowground fresh weights were recorded (g). Plants were subsequently placed in paper bags and maintained in the 95° F. drying oven for 3 days, after which dry weights were also recorded. Plant weights were compared between inoculated and non-inoculated treatments.

[12] = tested on: alfalfa; test: Plant growth promotion, greenhouse (FIG. 27); type: in vivo
Experimental: as §1, §2, §3, §4

[13] = tested on: corn; test: Plant growth promotion, greenhouse (FIG. 27); type: in vivo
Experimental: as §1, §2, §3, §4

[14] = tested on: soybean; test: Plant growth promotion, greenhouse (FIG. 27); type: in vivo
Experimental: as §1, §2, §3, §4

[15] = tested on: wheat; test: Plant growth promotion, greenhouse (FIG. 27); type: in vivo
Experimental: as §1, §2, §3, §4

[16] = tested on: Phytophthora sojae; test: Phytophthora sojae control on soybean, growth chamber; type: in vivo; conditions: growth chamber trials
[17] = tested on: Phytophthora medicaginis; test: Phytophthora medicaginis control on alfalfa, greenhouse; type: in vivo; conditions: field soil naturally infested, 28 days, inoculated vs non-inoculated
Description: FIG. 7A-B. Inoculant included in this figure: GS1. FIG. 7A depicts the severity of disease on […]. The present figure was constructed utilizing methods from Example 9(F)(iii). […] Briefly, soils were inoculated with a liquid spore suspension of a single Streptomyces isolate at planting. Alfalfa seeds were planted into field soil that was naturally-infested with the pathogen Phytophthora medicaginis. After 28 days, plants were harvested for disease and biomass assessments.
Inoculum was prepared as described above, and used to inoculate seeds planted in field soil placed in sterile tins. Inoculation occurred immediately after planting. […] GS1 was thus shown to promote plant growth.

[18] = tested on: potato scab; test: Potato field trials: percent scab control; type: in vivo; parameters: concentration or dose not given beside the values

Streptomyces lydicus [GS1]
inhibition of pathogen (in words) ([1]; P6 isolate of Rhizoctonia solani): inhibits | zone of inhibition ([1]; Table 1, pathogen isolate P6): 9.15 mm | mean inhibitory zone size ([1]; pathogen target isolate P5): 8.95 mm | mean inhibitory zone size ([1]; pathogen target isolate P6): 9.15 mm | mean inhibitory zone size ([1]; pathogen target isolate P12): 9.78 mm | zone of inhibition ([2]; Table 1, pathogen isolate P19): 8.63 mm | mean inhibitory zone size ([2]; pathogen target isolate P17): 16.8 mm | mean inhibitory zone size ([2]; pathogen target isolate P18): 12.8 mm | mean inhibitory zone size ([2]; pathogen target isolate P19): 8.63 mm | zone of inhibition ([3]; pathogen isolate P27): 0 mm | zone of inhibition ([3]; pathogen isolate P29): 0 mm | mean inhibitory zone size ([3]; pathogen target isolate P25): 2.15 mm | mean inhibitory zone size ([3]; pathogen target isolate P26): 9.38 mm | mean inhibitory zone size ([3]; pathogen target isolate P28): 0 mm | mean inhibitory zone size ([3]; pathogen target isolate P29): 0 mm | zone of inhibition ([4]; pathogen isolate P31): 8.63 mm | zone of inhibition ([4]; pathogen isolate P34): 16.28 mm | mean inhibitory zone size ([4]; pathogen target isolate P30): 14.58 mm | mean inhibitory zone size ([4]; pathogen target isolate P31): 8.63 mm | mean inhibitory zone size ([4]; pathogen target isolate P32): 11.5 mm | mean inhibitory zone size ([4]; pathogen target isolate P33): 13.13 mm | mean inhibitory zone size ([4]; pathogen target isolate P34): 16.28 mm | mean inhibitory zone size ([4]; pathogen target isolate P35): 11.03 mm | zone of inhibition ([5]; pathogen isolate P43): 4.53 mm | zone of inhibition ([5]; pathogen isolate P44): 10.45 mm | mean inhibitory zone size ([5]; pathogen target isolate P43): 4.53 mm | mean inhibitory zone size ([5]; pathogen target isolate P44): 10.45 mm | inhibition of pathogen (in words) ([6]; P52 isolate of Phytophthora sojae): does not | zone of inhibition ([6]; Table 1, pathogen isolate P52): 0 mm | mean inhibitory zone size ([6]; Table 4, pathogen target isolate P52): 0 mm | zone of inhibition ([7]; Table 1, pathogen isolate P58): 9.95 mm | mean inhibitory zone size ([7]; Table 4, pathogen target isolate P58): 9.95 mm | zone of inhibition [8]: 4.68 mm | mean inhibitory zone size ([9]; pathogen target isolate P20): 0 mm | mean inhibitory zone size ([9]; pathogen target isolate P21): 1.3 mm | mean inhibitory zone size ([9]; pathogen target isolate P22): 0 mm | mean inhibitory zone size ([9]; pathogen target isolate P23): 0 mm | Antibiotic resistance characteristics ([10]; Amoxicillin Clavulanate): R (R-resistant (0 inhibition zone)) | Antibiotic resistance characteristics ([10]; Chloramphenicol): R (R-resistant (0 inhibition zone)) | Antibiotic resistance characteristics ([10]; Erythromycin): S (S-susceptible (>10 mm)) | Antibiotic resistance characteristics ([10]; Kanamycin): S (S-susceptible (>10 mm)) | Antibiotic resistance characteristics ([10]; Novobiocin 5): MS (MS-moderately susceptible (6-10 mm)) | Antibiotic resistance characteristics ([10]; Novobiocin 30): MS (MS-moderately susceptible (6-10 mm)) | Antibiotic resistance characteristics ([10]; Penicillin): R (R-resistant (0 inhibition zone)) | Antibiotic resistance characteristics ([10]; Rifampin): R (R-resistant (0 inhibition zone)) | Antibiotic resistance characteristics ([10]; Streptomycin): S (S-susceptible (>10 mm)) | Antibiotic resistance characteristics ([10]; Tetracycline): R (R-resistant (0 inhibition zone)) | Antibiotic resistance characteristics ([10]; Vancomycin 5): MS (MS-moderately susceptible (6-10 mm)) | Antibiotic resistance characteristics ([10]; Vancomycin 30): MS (MS-moderately susceptible (6-10 mm)) | promotion of growth of inoculated vs non-inoculated plants [11]: statistically significant effect | fresh and dry weights [12]: significant enhancements | growth promotion ([12]; FIG. 27): promote the growth | fresh and dry weights [13]: not | dry weight [14]: significant increases | fresh and dry weights [15]: not | reduction of disease severity ([16]; soil infested with P. sojae): 93% | percent healthy plants ([16]; FIG. 7A): increased | disease [17]: significantly reduced; also recorded: reduced disease | plant biomass [17]: significantly increased; also recorded: significant increases | Percent Control (reduction in scab severity vs non-inoculated plots) ([18]; experiment BPP, disease on non-inoculated tubers 22.2): 33% | Percent Control (reduction in scab severity vs non-inoculated plots) ([18]; experiment BSCR, disease on non-inoculated tubers 16.2): 35% | Percent Control (reduction in scab severity vs non-inoculated plots) ([18]; experiment BSP, disease on non-inoculated tubers 24.3): 42% | Percent Control (reduction in scab severity vs non-inoculated plots) ([18]; experiment BWP, disease on non-inoculated tubers 26.7): 38% | Percent Control (reduction in scab severity vs non-inoculated plots) ([18]; experiment RPP, disease on non-inoculated tubers 15.6): 37% | Percent Control (reduction in scab severity vs non-inoculated plots) ([18]; experiment RSP, disease on non-inoculated tubers 8.8): 39%

Reference: patent US20210251237A1, “PLATFORM FOR DEVELOPING SOIL-BORNE PLANT PATHOGEN INHIBITING MICROBIAL CONSORTIA” (priority 2018, published 2021)
